Results from US10463618B2, “Nanoemulsions” (The University of Liverpool, priority 2015, dated 2019).

Columns and labels:
extrinsic pathway = assay: Plasma coagulation: prothrombin time (PT); parameters: species or system Human; settings: 37° C., 30 minutes, 0.16-40 μg/mL
Procedure: (§1) The impact of nanoemulsion formulations on plasma coagulation was also assessed. Human blood from three donors was collected by venepuncture into tubes anti-coagulated with sodium citrate; blood was used within one hour of collection. Test plasma was prepared by centrifuging blood at 2500×g, at 21° C., for 10 minutes with the resultant plasma collected and pooled. Pooled plasma was stable at room temperature for 8 hours. Nanoemulsion samples were prepared at 10× the required final concentration to accommodate dilution when added to test plasma. Concentrations and subsequent dilutions were based on the concentration of Efavirenz contained within the samples with dilutions of blank nanoemulsion diluted in the same fashion. Final concentrations tested were 40 μg/mL, 4 μg/mL, 0.8 μg/mL and 0.16 μg/mL. […]
(§2) Cuvettes were placed into A, B, C and D test rows on the coagulometer and one metal ball added into each cuvette (warmed for at least 3 minutes prior to use). […] Once incubation time was complete coagulation reagent was added to each cuvette and coagulation time recorded. Percentage coefficient of variation was calculated for each control and test samples according to the following formula: % CV=SD/Mean×100%. […] Data was expressed as a percentage of the coagulation time recorded for plasma with no nanomaterial present (plasma only control).

intrinsic pathway = assay: Plasma coagulation: activated partial thromboplastin time (APTT); parameters: species or system Human
Procedure: as §1, §2

[1] = Transcellular permeation assay (Caco-2 transwell); type: in vitro ADME; settings: human
Procedure: (§3) Caco-2 cells were seeded at a density of 35,000 cells per well in the apical chamber of a 24 well Corning® HTS® transwell plate, and left to adhere for 24 hours. After this time, culture media was replenished by removal with an aspirator, also removing those cells that had not adhered. Culture media used was DMEM supplemented with 15% fetal bovine serum, which was continually replenished every other day for a three-week period.
(§4) In different wells the apical or basolateral chambers (donor chambers) were loaded with drug or nanoemulsion containing media, with the opposite chambers (acceptor chambers) of those wells being filled with fresh drug-free media. Samples were taken from both apical and basolateral chambers from all wells at 1, 2, and 24 hour time periods. Samples were then immediately frozen at −40° C. for subsequent batch analysis via high performance liquid chromatography to determine the concentration of the drug in the sample.
(§5) The apparent permeability (Papp) was calculated using the following equation: Papp=((A/T)*(V))/(S*0.3).
(§6) Where A is the concentration in the sample, T is the time in seconds at which the sample was collected, V is the total volume of sample contained in the chamber being sampled, S is the initial starting concentration of the drug and 0.3 is the surface area in cm^2 of the transwell insert on which the Caco-2 cells are grown.

Caco-2 cells = assay: Transcellular permeation assay (Caco-2 transwell); type: in vitro ADME; settings: 10 μM
Procedure: as §3, §4, §5, §6

[2] = Solubility of drug in castor oil; type: physicochemical
Procedure: Non-limiting examples of some suitable drugs include for example the antiretroviral drugs Lopinavir (LPV) and Efavirenz (EFV), and the antibiotics Rifampicin and Erythromycin. Practically, approximately 50 mg/ml Efavirenz or 25 mg/ml Lopinavir can be dissolved in castor oil. Stock solutions of drug dissolved in castor oil were produced (50 mg/ml of Efavirenz in castor oil, or 25 mg/ml of Lopinavir in the same oil).

final common pathway = assay: Plasma coagulation: thrombin time (TT); parameters: species or system Human; settings: 37° C., 30 minutes, 0.16-40 μg/mL
Procedure: as §1, §2

[3] = Caco-2, 2 hours, read-out: Papp apical to basolateral

Papp A→B at 2 h, 10 μM [1, 3]	Papp A→B at 24 h, 10 μM ([1]; Caco-2, 24 hours, read-out: Papp apical to basolateral)	Papp basolateral to apical (Caco-2 cells; 1 hour)	Papp basolateral to apical (Caco-2 cells; 2 hours)	amount that can be dissolved in castor oil [2]	Papp A→B at 1 h, 10 μM ([1]; Caco-2, 1 hour, read-out: Papp apical to basolateral)	Papp B→A at 1 h, 10 μM ([1]; Caco-2, 1 hour, read-out: Papp basolateral to apical)	Papp B→A at 2 h, 10 μM ([1]; Caco-2, 2 hours, read-out: Papp basolateral to apical)	Structure (SMILES)	impact on prothrombin time (PT) (extrinsic pathway)	impact on APTT coagulation time (intrinsic pathway)	impact on thrombin time (TT) (final common pathway)
8.2 ×10⁻⁶ cm/s	0.7 ×10⁻⁶ cm/s	increased compared to EFV nanoemulsion	increased compared to EFV nanoemulsion	approximately 50 mg/ml				O=C1Nc2ccc(Cl)cc2[C@@](C#CC2CC2)(C(F)(F)F)O1 [Efavirenz]	No impact	did not impact on coagulation time at all	No impact
2.7 ×10⁻⁶ cm/s				~25 mg/mL	8.4 ×10⁻⁶ cm/s	9.3 ×10⁻⁶ cm/s	13 ×10⁻⁶ cm/s	Cc1cccc(C)c1OCC(=O)N[C@@H](Cc1ccccc1)[C@@H](O)C[C@H](Cc1ccccc1)NC(=O)[C@H](C(C)C)N1CCCNC1=O [Lopinavir]			
